# Tests used:
# [1] = tested on: SMN2 minigene mRNA (SMN2-A minigene) in HEK293H cells; assay: SMN2 minigene mRNA splicing RT-qPCR assay in cultured cells; type: cell-based, human; conditions: Homo sapiens, HEK293-H; concentration increasing full length SMN2 mRNA 1.5-fold relative to vehicle-treated cells; HEK293H cells with SMN2-A minigene, 24 hours, 7-point concentration data; read-out: EC1.5x for production of full length SMN2 mRNA
# Summary of the method: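 HEK293H cells stably carrying the SMN2-A minigene were treated for 24 h at 37 °C with a 7-point, 3.16-fold dilution series of compound. Multiplex RT-qPCR measured exon 7-containing minigene FL mRNA against GAPDH, expressed relative to vehicle by modified ΔΔCt; the EC1.5× is the concentration giving a 1.5-fold increase.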
# [2] = tested on: Smn protein in SMA patient fibroblast cells (GM03813); assay: Smn protein assay in cultured cells (SMN HTRF); type: cell-based, human; conditions: SMA patient fibroblast cells, 48 hours; for maximum fold (Fold) increase of Smn protein: 7-point concentration data, fold relative to vehicle control; for EC1.5x for Smn protein expression: 7-point concentration curve, SMN HTRF, concentration producing 1.5 times Smn protein vs DMSO vehicle control
# Summary of the method: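 SMA patient fibroblasts (5,000 cells/well, DMEM-10% FBS) were treated for 48 h at 37 °C with a 7-point, 3.16-fold dilution series in triplicate. RIPA lysates were probed by HTRF (anti-SMN d2/kryptate, overnight, room temperature), reading 665/620 nm. EC1.5× is the concentration giving 1.5-fold Smn over DMSO vehicle.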
melting point [°C],SMILES,EC (1.5-fold increase) [1] [µM],maximum fold (Fold) increase of Smn protein [2],EC1.5x for Smn protein expression [2]
244 to 253,"Cc1cn2nc(-c3cc(=O)n4cc(N5CCN(C)[C@@H](C)C5)cc(C)c4n3)cc2c(C)n1 [Compound 563, 7-[(3S)-3,4-dimethylpiperazin-1-yl]-2-(4,6-dimethylpyrazolo[1,5-a]pyrazin-2-yl)-9-methyl-4H-pyrido[1,2-a]pyrimidin-4-one]",0.1 to 0.3,***** (a fold increase >1.65 is indicated by five stars (*****)),**** (an EC1.5x≤0.3 μM is indicated by four stars (****))
297 to 310,"Cc1cn2nc(-c3cc(=O)n4cc(N5C[C@@H](C)N(C)[C@@H](C)C5)cc(C)c4n3)cc2c(C)n1 [Compound 564, 2-(4,6-dimethylpyrazolo[1,5-a]pyrazin-2-yl)-9-methyl-7-[(3R,5S)-3,4,5-trimethylpiperazin-1-yl]-4H-pyrido[1,2-a]pyrimidin-4-one]",1 to 3,* (A maximum fold increase of ≤1.2 is indicated by one star (*)),
235 to 237,"Cn1cc2cc(-c3cc(=O)n4cc(C5CCNCC5)ncc4n3)ccc2n1 [Compound 566, 2-(2-methyl-2H-indazol-5-yl)-7-(piperidin-4-yl)-4H-pyrazino[1,2-a]pyrimidin-4-one]",< 0.1,***** (a fold increase >1.65 is indicated by five stars (*****)),**** (an EC1.5x≤0.3 μM is indicated by four stars (****))

# The remaining lines, values behind:
SMILES,melting point [°C],EC (1.5-fold increase) [1] [µM],maximum fold (Fold) increase of Smn protein [2],EC1.5x for Smn protein expression [2]
"Cc1cn2ccc(-c3cc(=O)n4cc(C5CCN(C)CC5)ccc4n3)cc2n1 [Compound 559, 2-(2-methylimidazo[1,2-a]pyridin-7-yl)-7-(1-methylpiperidin-4-yl)-4H-pyrido[1,2-a]pyrimidin-4-one]",255 to 260,1 to 3,* (A maximum fold increase of ≤1.2 is indicated by one star (*)),
"CCN1CCC(c2ccc3nc(-c4ccn5cc(C)nc5c4)cc(=O)n3c2)CC1 [Compound 560, 7-(1-ethylpiperidin-4-yl)-2-(2-methylimidazo[1,2-a]pyridin-7-yl)-4H-pyrido[1,2-a]pyrimidin-4-one]",229 to 233,1 to 3,* (A maximum fold increase of ≤1.2 is indicated by one star (*)),
"Cc1cn2nc(-c3cc(=O)n4cc(N5CCN[C@@H](C)C5)cc(C)c4n3)cc2c(C)n1 [Compound 561, 2-(4,6-dimethylpyrazolo[1,5-a]pyrazin-2-yl)-9-methyl-7-[(3S)-3-methylpiperazin-1-yl]-4H-pyrido[1,2-a]pyrimidin-4-one]",210 to 219,< 0.1,**** (a fold increase between >1.5 and ≤1.65 is indicated by four stars (****)),**** (an EC1.5x≤0.3 μM is indicated by four stars (****))
"Cc1cn2nc(-c3cc(=O)n4cc(N5C[C@@H](C)N[C@@H](C)C5)cc(C)c4n3)cc2c(C)n1 [Compound 562, 7-[(3R,5S)-3,5-dimethylpiperazin-1-yl]-2-(4,6-dimethylpyrazolo[1,5-a]pyrazin-2-yl)-9-methyl-4H-pyrido[1,2-a]pyrimidin-4-one]",273 to 283,0.3 to 1,** (a fold increase between >1.2 and ≤1.35 is indicated by two stars (**)),
"Cc1cn2cc(-c3cc(=O)n4cc(C5=CCN(C(C)C)CC5)ccc4n3)ccc2n1 [Compound 565, 2-(2-methylimidazo[1,2-a]pyridin-6-yl)-7-[1-(propan-2-yl)-1,2,3,6-tetrahydropyridin-4-yl]-4H-pyrido[1,2-a]pyrimidin-4-one]",230 to 232,< 0.1,**** (a fold increase between >1.5 and ≤1.65 is indicated by four stars (****)),*** (an EC1.5× between >0.3 μM and ≤1 μM is indicated by three stars (***))

# — US11753407B2, “Compounds for treating spinal muscular atrophy” (PTC Therapeutics, Inc., priority 2012, dated 2023)
